Experimental data: PMC6770484, “Discovery of Orexant and Anorexant Agents with Indazole Scaffold Endowed with Peripheral Antiedema Activity” (Biomolecules, 2019)
Like-named read-outs stand apart in the source and are kept apart here.

Experiments:
[1] = target: T1, cannabinoid receptors (CB1), rat brain membranes (Rattus norvegicus, UniProt P20272); assay: [3H]WIN55212-2 radioligand competition binding assay
T1 construct: Crude membrane fractions were prepared from the brain; from tissue; host or cells: Wistar rat whole brain, crude membrane fraction
Method: (§1) Wistar rats were locally bred and handled according to the EU Directive 2010/63/EU and to the Regulations on Animal Protection (40/2013. (II. 14.) Korm. r.) of Hungary. Crude membrane fractions were prepared from the brain. Brains were quickly removed from the euthanized rats and directly put in an ice-cold 50 mM Tris–HCl buffer (pH 7.4). The collected tissue was then homogenized in 30 volumes (v/w) of an ice-cold buffer with a Braun Teflon-glass homogenizer at the highest rpm. The homogenate was centrifuged at 20,000× g for 25 min, and the resulting pellet was suspended in the same volume of a cold buffer followed by incubation at 37 °C for 30 min to remove endogenous ligands. Centrifugation was then repeated. The final pellets were taken up in five volumes of a 50 mM Tris–HCl (pH 7.4) buffer containing 0.32 M sucrose and stored at −80 °C. Prior to the experiment, aliquots were thawed and centrifuged at 20,000× g for 25 min and then they were resuspended in 50 mM Tris–HCl (pH 7.4), homogenized with a Douncer, followed by the determination of the protein concentration by the method of Bradford. The membrane suspensions were immediately used either in radioligand binding experiments or in [^35S]GTPγS functional assays.
Filtration was performed with a 24-well Brandel Cell Harvester (Gaithersburg, MD, USA). Filters were air-dried and immersed into Ultima Gold MV scintillation cocktail, and then radioactivity was measured with a TRI-CARB 2100TR liquid scintillation analyzer (Packard, Perkin Elmer, Waltham, MA, USA).

[2] = target: T2, CB1 receptor G protein activation, rat brain membranes (Rattus norvegicus, UniProt P20272); assay: Ligand stimulated [35S]GTPγS binding assay; assay type: biochemical; conditions: for Emax: rat brain membranes, basal = 100%, mean ± S.E.M.
T2 construct: Crude membrane fractions were prepared from the brain; from tissue; host or cells: Wistar rat whole brain, crude membrane fraction
Method: as §1
Rat brain membranes (30 µg protein/tube), prepared as described above, were incubated with 0.05 nM of [^35S]GTPγS (PerkinElmer) and 10^−10–10^−5 M unlabeled ligands in the presence of 30 µM of GDP, 100 mM of NaCl, 3 mM of MgCl2 and 1 mM of EGTA in a 50 mM Tris–HCl buffer (pH 7.4) for 60 min at 30 °C. Basal [^35S]GTPγS binding was measured in the absence of ligands and set as 100%. Nonspecific binding was determined by the addition of 10 µM unlabeled GTPγS and subtracted from total binding. Incubation, filtration and radioactivity measurements of the samples were carried out as described above.
In [^35S]GTPγS binding studies, data were expressed as the percentage stimulation of the specific [^35S]GTPγS binding over the basal activity and are given as means ±S.E.M. Each experiment was performed in triplicate and analyzed with sigmoid dose–response curve fitting to obtain potency (EC50) and efficacy (Emax) values. All data and curves were analyzed by GraphPad Prism 5.0 (San Diego, CA, USA).

[3] = target: T2, CB1 receptor G protein activation, rat brain membranes; conditions: cited from earlier work; for [35S]GTPγS Binding Emax: basal = 100%; for EC50: read-out: [35S]GTPγS Binding EC50
[4] = test system: food intake; assay: Feeding test (food intake); assay type: in vivo, CD-1 male mice; conditions: 10 mg/Kg i.p., fasted mice, 1-h test
Description: (§2) The international and national law and policies approved by Italian Ministry of Health were used to comply with all animal care and experimental procedures. Animal studies were advised in compliance with the ARRIVE guidelines and with the recommendations made by EU Directive 2010/63/EU for animal experiments and the Basel declaration including the 3Rs concept. CD-1 male mice (10–14 weeks of age, 25–30 g of weight) were bought from Charles River (Milan, Italy). Shortly after their arrival and for at least one week, they were kept in an animal care facility under controlled standard conditions of temperature (21 ± 1 °C), light (from 7:00 AM to 7:00 PM), and relative humidity (60 ± 10%). Access to drinking water and food was assured. All procedures were performed to decrease the number of animals used (n = 6 per group) and their distress.
The test was carried out as previously described. At 24 h before the start of a feeding test, all food was removed from the home cages of mice to be tested. The next day and at least 1 h before the feeding test began, the mice were transported to the laboratory. On test days, the animals were placed in the home cages for 30 min of drug assimilation, during which food was not available. Then compounds were intraperitoneally administered (10 mg/kg). Mice were transferred into transparent and individual plastic cages with thick white paper lining the bottom and access to a pre-measured amount of their regular lab chow (2 gr) for the 1-h test. At the end of 1 h, mice were repositioned into their home cage. The amount of food left in the trial cage, including crumbs, was measured, and the amount consumed was calculated. Feeding trials normally happened on Tuesdays and Fridays between 12:00 and 14:00 h.

[5] = test system: zymosan-induced thermal hyperalgesia; assay: Zymosan-induced hyperalgesia (plantar test); assay type: in vivo, CD-1 male mice; conditions: 100 μg/20 μL s.c., after 3 h
Description: as §2, with “All procedures were performed to decrease the number of animals used (n = 6 per group) and their distress.” left out
The compounds (100 µg) were administered subcutaneously in a volume of 20 µL in the dorsal surface of mice hind paw; this was done 15 min before a subcutaneous injection (20 μL/paw) of zymosan A (2.5% w/v in saline) into the same paw before the measurement of hyperalgesia. The sensitivity to a noxious heat stimulus was measured by the plantar test (Ugo Basile, Italy), in order to evaluate thermal hyperalgesia after the zymosan-induced inflammation of the mouse hind paw. […] Furthermore, on the test day, the animals were acclimatized to the experimental room 1 h before paw withdrawal latency (PWL) was calculated. […]

[6] = test system: formalin-induced licking/biting; assay: Formalin test; assay type: in vivo, CD-1 male mice; conditions: 100 μg/20 μL s.c., mice
Description: as §2
Mice were located to adapt into the transparent cages individually (30 × 14 × 12 cm) for at least an hour before testing. They were injected with 20 μL of a 1% solution of formalin in saline. Then, the compounds were administered subcutaneously in the dorsal surface of the right hind paw of the mouse using a microsyringe with a 27-gauge needle for 15 min before. Compounds were prepared by freshly diluting saline containing 0.9% NaCl in the ratio DMSO:saline 1:3 (v/v). […] The total time the animal spent licking or biting its paw was calculated.

[7] = test system: zymosan-induced paw edema; assay: Edema induced by zymosan; assay type: in vivo, CD-1 male mice; conditions: 100 μg/20 μL s.c., for 24 h
Description: as §2
In this test, 100 µg of the compounds were administered subcutaneously in a volume of 20 µL in the dorsal surface of mice hind paw; this was done 15 min before a subcutaneous injection (20 μL/paw) of zymosan A (2.5% w/v in saline) into the same paw. Then, paw edema was calculated as formerly described. […] Paw volume was quantified using a hydroplethysmometer modified for small volumes (Ugo Basile, Varese, Italy) three times before the injections and at 1, 2, 3, 4 and 24 h thereafter.

[8] = target: T1, cannabinoid receptors (CB1), rat brain membranes; conditions: displacement of [3H]WIN55212-2, rat brain membranes; cited from earlier work

T1 sequence (P20272 whole entry): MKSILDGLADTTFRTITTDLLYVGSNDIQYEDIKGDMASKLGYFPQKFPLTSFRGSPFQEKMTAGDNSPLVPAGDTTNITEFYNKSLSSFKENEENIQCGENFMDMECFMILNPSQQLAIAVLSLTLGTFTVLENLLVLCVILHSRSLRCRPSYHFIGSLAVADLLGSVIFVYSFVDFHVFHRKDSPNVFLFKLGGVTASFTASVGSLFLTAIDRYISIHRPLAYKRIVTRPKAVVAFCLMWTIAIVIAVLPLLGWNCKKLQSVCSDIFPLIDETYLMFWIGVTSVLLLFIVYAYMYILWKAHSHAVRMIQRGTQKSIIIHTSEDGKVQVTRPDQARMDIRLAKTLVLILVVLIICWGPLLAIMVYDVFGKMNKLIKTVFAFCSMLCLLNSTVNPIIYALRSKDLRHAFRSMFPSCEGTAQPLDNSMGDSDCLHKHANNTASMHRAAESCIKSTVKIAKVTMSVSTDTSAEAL
T2 sequence (P20272 whole entry): as above

SMILES | Ki [1] | Emax [2] | [35S]GTPγS Binding Emax [3] | EC50 [3] | effect on food intake [4] | also measured
CNC(=O)[C@H](CC(C)C)NC(=O)c1nn(Cc2ccc(Cl)cc2Cl)c2ccccc12 [LONI12, (S)-1-(2,4-dichlorobenzyl)-N-(4-methyl-1-(methylamino)-1-oxopentan-2-yl)-1H-indazole-3-carboxamide] | 320 ± 16 nM | 101 ± 1% |  |  |  | 
COC(=O)[C@@H](NC(=O)c1nn(Cc2ccc(Cl)cc2Cl)c2ccccc12)C(C)(C)C [LONI2, (S)-methyl-2-(1-(2,4-dichlorobenzyl)-1H-indazole-3-carboxamido)-3,3-dimethylbutanoate] |  |  | 143 ± 5.7% | 8.4 nM | reduce food intake | 
CNC(=O)[C@@H](NC(=O)c1nn(Cc2ccc(Cl)cc2Cl)c2ccccc12)C(C)C [LONI10, (S)-1-(2,4-dichlorobenzyl)-N-(3-methyl-1-(methylamino)-1-oxobutan-2-yl)-1H-indazole-3-carboxamide] | 84 ± 3.4 nM | 100 ± 1.7% |  |  |  | 
CNC(=O)[C@@H](NC(=O)c1nn(Cc2ccc(Cl)cc2Cl)c2ccccc12)C(C)(C)C [LONI11, (S)-1-(2,4-dichlorobenzyl)-N-(3,3-dimethyl-1-(methylamino)-1-oxobutan-2-yl)-1H-indazole-3-carboxamide] | 11 ± 1.2 nM | 151 ± 3% |  |  | increased the food intake | percent of paw latency (zymosan-induced hyperalgesia) [5]: about 50%; antinociceptive effect in formalin test [6]: slight antinociceptive effect; percent of paw volume (zymosan-induced edema) [7]: 100%; EC50 [2]: 200 ± 13 nM; potency in GTP-binding protein stimulation relative to WIN55,212 ([2]; compared with WIN55,212): three-fold less potency
CC(C)(C)[C@H](NC(=O)c1nn(Cc2ccc(Cl)cc2Cl)c2ccccc12)C(=O)O [LONI1, (S)-2-(1-(2,4-dichlorobenzyl)-1H-indazole-3-carboxamido)-3,3-dimethylbutanoic acid] |  |  | 84 ± 6.6% | > 1000 nM |  | 
CC(C)[C@H](NC(=O)c1nn(Cc2ccc(Cl)cc2Cl)c2ccccc12)C(=O)O [LONI4, (S)-2-(1-(2,4-dichlorobenzyl)-1H-indazole-3-carboxamido)-3-methylbutanoic acid] |  |  | 82 ± 10.6% | > 1000 nM | reduce food intake | 
CC(C)(C)[C@H](NC(=O)c1nn(Cc2ccc(Cl)cc2Cl)c2ccccc12)C(N)=O [LONI3, (S)-N-(1-amino-3,3-dimethyl-1-oxobutan-2-yl)-1-(2,4-dichlorobenzyl)-1H-indazole-3-carboxamide] |  |  | 139 ± 4.5% | 126 nM |  | 
CCCCCn1cc(C(=O)c2cccc3ccccc23)c2ccccc21 [JWH-018, reference compound] |  |  | 163 ± 5.2% | 16 ± 3 nM |  | Ki [8]: 3.5 ± 1 nM
Cc1c(C(=O)NN2CCCCC2)nn(-c2ccc(Cl)cc2Cl)c1-c1ccc(Cl)cc1 [rimonabant, 5-(4-chlorophenyl)-1-(2,4-dichloro-phenyl)-4-methyl-N-(piperidin-1-yl)-1H-pyrazole-3-carboxamide, reference compound] |  |  |  |  | reduce food intake | 
